Test results reported in the supplement of paper PMC10307832.

These cell lines were tested with CC1(C)CNc2cc(NC(=O)c3cccnc3NCc3ccncc3)ccc21 [Motesanib] + O=C(CCCCCCC(=O)Nc1ccccc1)NO [Vorinostat] (partner 1 µM) (assay: relative viability (nuclei count vs DMSO), 5 days (fraction); higher = more cells survive). Details: first compound 0.01 µM.
Method in brief: (§1)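 One day after seeding in 1536-well plates, lung cancer cell lines were dosed by pin tool. Dosing was either single-drug or a fixed anchor-drug dose plus five library-drug doses (not always all listed) in √10 steps. After 5 days, nuclei were stained in one fix-and-stain step and counted on 4× images, and relative viability is the nuclei count of treated wells over that of vehicle wells, given as the median of duplicate plates.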
With COR-L 105 the relative viability was 0.861. In the case of IA-LM, the relative viability is reported as 0.91. LOU-NH91 was tested, and the relative viability was 0.918. ChaGo-K-1 showed a relative viability of 0.745. In the case of NCI-H2170, the relative viability is reported as 0.797. NCI-H2405 was tested, and the relative viability was 0.941. In the case of HOP-62, the relative viability is reported as 0.668. HCC-44 was tested, and the relative viability was 1.14. NCI-H522 showed a relative viability of 0.89. Work on LU99A yielded a relative viability of 0.473. BEN showed a relative viability of 0.543. With HARA the relative viability was 0.573. SW 900 was tested, and the relative viability was 0.542. Cell Line HCC-78 has a relative viability of 0.429. NCI-H322M showed a relative viability of 0.962.

Same assay, conditions: first compound 0.03162 µM
NCI-H2342 was tested, and the relative viability was 0.77. In the case of NCI-H727, the relative viability is reported as 1.29. NCI-H1650 gave a relative viability of 0.6. For NCI-H1993, the relative viability was 0.757. SW 1573 was tested, and the relative viability was 0.799. Cell Line NCI-H838 has a relative viability of 0.75. In the case of LCLC-103H, the relative viability is reported as 0.843. With NCI-H520 the relative viability was 0.759. In the case of NCI-H2126, the relative viability is reported as 0.774. EMC-BAC-2 showed a relative viability of 0.475. NCI-H2085 gave a relative viability of 0.823. In the case of HCC-366, the relative viability is reported as 0.388. NCI-H1666 was tested, and the relative viability was 0.978. For NCI-H596, the relative viability was 0.546. Cell Line LK-2 has a relative viability of 0.311. With SK-MES-1 the relative viability was 1.12. For H3255, the relative viability was 0.88. COR-L23 was tested, and the relative viability was 0.387. COR-L 105 showed a relative viability of 0.866. IA-LM gave a relative viability of 0.936. With LOU-NH91 the relative viability was 0.932. For ChaGo-K-1, the relative viability was 0.764. Cell Line NCI-H2170 has a relative viability of 0.851. Cell Line NCI-H2405 has a relative viability of 0.989. With HOP-62 the relative viability was 0.677. HCC-44 gave a relative viability of 1.02. Cell Line NCI-H522 has a relative viability of 0.927. LU99A showed a relative viability of 0.593. BEN was tested, and the relative viability was 0.56. HARA showed a relative viability of 0.706. In the case of SW 900, the relative viability is reported as 0.404. Work on HCC-78 yielded a relative viability of 0.467. Work on NCI-H322M yielded a relative viability of 0.88.

Same assay, conditions: first compound 0.1 µM
Work on NCI-H2342 yielded a relative viability of 0.715. Work on NCI-H727 yielded a relative viability of 1.39. Cell Line NCI-H1650 has a relative viability of 0.714. With NCI-H1993 the relative viability was 0.881. SW 1573 gave a relative viability of 0.738. Work on NCI-H838 yielded a relative viability of 0.801. For LCLC-103H, the relative viability was 0.815. NCI-H520 gave a relative viability of 0.687. In the case of NCI-H2126, the relative viability is reported as 0.643. Cell Line EMC-BAC-2 has a relative viability of 0.426. With NCI-H2085 the relative viability was 0.821. Work on HCC-366 yielded a relative viability of 0.443. NCI-H1666 showed a relative viability of 1.06. NCI-H596 was tested, and the relative viability was 0.56. LK-2 showed a relative viability of 0.386. For NCI-H2087, the relative viability was 0.561. With SK-MES-1 the relative viability was 1.25. H3255 gave a relative viability of 0.661. COR-L23 was tested, and the relative viability was 0.53. COR-L 105 gave a relative viability of 0.81. Work on IA-LM yielded a relative viability of 0.953. LOU-NH91 showed a relative viability of 0.993. With ChaGo-K-1 the relative viability was 0.745. Work on NCI-H2170 yielded a relative viability of 0.804. NCI-H2405 was tested, and the relative viability was 0.96. Work on HOP-62 yielded a relative viability of 0.599. Cell Line HCC-44 has a relative viability of 1.17. For NCI-H522, the relative viability was 0.92. In the case of LU99A, the relative viability is reported as 0.505. In the case of BEN, the relative viability is reported as 0.637. HARA gave a relative viability of 0.538. SW 900 showed a relative viability of 0.574. With HCC-78 the relative viability was 0.494. For NCI-H322M, the relative viability was 0.871.

Same assay, conditions: first compound 0.3162 µM
NCI-H2342 gave a relative viability of 0.704. NCI-H727 showed a relative viability of 1.26. Work on NCI-H1650 yielded a relative viability of 0.67. Cell Line NCI-H1993 has a relative viability of 0.746. Cell Line SW 1573 has a relative viability of 0.834. Work on NCI-H838 yielded a relative viability of 0.779. LCLC-103H was tested, and the relative viability was 1.02. For NCI-H520, the relative viability was 0.734. NCI-H2126 was tested, and the relative viability was 0.926. In the case of EMC-BAC-2, the relative viability is reported as 0.417. In the case of NCI-H2085, the relative viability is reported as 0.824. Cell Line HCC-366 has a relative viability of 0.375. NCI-H1666 showed a relative viability of 1. For NCI-H596, the relative viability was 0.511. LK-2 gave a relative viability of 0.433. In the case of NCI-H2087, the relative viability is reported as 0.764. In the case of NCI-H1648, the relative viability is reported as 0.557. Cell Line SK-MES-1 has a relative viability of 1.16. Work on H3255 yielded a relative viability of 0.893. In the case of COR-L23, the relative viability is reported as 0.44. In the case of COR-L 105, the relative viability is reported as 1.03. IA-LM showed a relative viability of 0.935. Cell Line LOU-NH91 has a relative viability of 1. Cell Line ChaGo-K-1 has a relative viability of 0.818. Work on NCI-H2170 yielded a relative viability of 0.837. With NCI-H2405 the relative viability was 1. Cell Line HOP-62 has a relative viability of 0.972. HCC-44 was tested, and the relative viability was 1.08. With NCI-H522 the relative viability was 0.909. LU99A was tested, and the relative viability was 0.645. BEN showed a relative viability of 0.654. With HARA the relative viability was 0.638. For SW 900, the relative viability was 0.649. Work on NCI-H322M yielded a relative viability of 1.03.

Same assay, conditions: first compound 1 µM
In the case of NCI-H2342, the relative viability is reported as 0.751. With NCI-H727 the relative viability was 1.29. In the case of NCI-H1650, the relative viability is reported as 0.571. NCI-H1993 showed a relative viability of 0.813. For SW 1573, the relative viability was 1.04. NCI-H838 was tested, and the relative viability was 0.737. LCLC-103H showed a relative viability of 0.762. Cell Line NCI-H520 has a relative viability of 0.686. Cell Line NCI-H2126 has a relative viability of 0.813. With EMC-BAC-2 the relative viability was 0.43. In the case of NCI-H2085, the relative viability is reported as 0.866. HCC-366 showed a relative viability of 0.308. NCI-H1666 was tested, and the relative viability was 1.02. NCI-H596 showed a relative viability of 0.711. Work on LK-2 yielded a relative viability of 0.486. With NCI-H2087 the relative viability was 0.791. NCI-H1648 was tested, and the relative viability was 0.421. SK-MES-1 showed a relative viability of 1.16. H3255 was tested, and the relative viability was 0.773. COR-L23 was tested, and the relative viability was 0.459. Cell Line COR-L 105 has a relative viability of 0.819. IA-LM showed a relative viability of 0.767. LOU-NH91 gave a relative viability of 0.992. With ChaGo-K-1 the relative viability was 0.748. Cell Line NCI-H2170 has a relative viability of 0.818. With NCI-H2405 the relative viability was 0.994. Cell Line HOP-62 has a relative viability of 0.799. HCC-44 showed a relative viability of 1.09. NCI-H522 gave a relative viability of 1.05. Work on LU99A yielded a relative viability of 0.484. With BEN the relative viability was 0.772. Cell Line HARA has a relative viability of 0.565. In the case of SW 900, the relative viability is reported as 0.59. For HCC-78, the relative viability was 0.413. Cell Line NCI-H322M has a relative viability of 0.849.

Each cell line was assayed with CC1(C)CNc2cc(NC(=O)c3cccnc3NCc3ccncc3)ccc21 [Motesanib] + Cc1nc(Nc2ncc(C(=O)Nc3c(C)cccc3Cl)s2)cc(N2CCN(CCO)CC2)n1 [Dasatinib] (partner 0.075 µM) in the same assay as above. Details: first compound 0.01 µM.
Method in brief: as §1
NCI-H2342 was tested, and the relative viability was 0.271. NCI-H1623 showed a relative viability of 0.481. For NCI-H727, the relative viability was 0.39. Work on NCI-H1650 yielded a relative viability of 0.374. For NCI-H1993, the relative viability was 0.629. With SW 1573 the relative viability was 0.53. Work on NCI-H838 yielded a relative viability of 0.301. LCLC-103H gave a relative viability of 0.432. For NCI-H520, the relative viability was 0.208. NCI-H2126 gave a relative viability of 0.598.
